Results taken from the NIST ThermoML archive (doi:10.1016/j.fluid.2018.05.029).
Numbers after ± are expanded uncertainties.

conditions: Liquid; Resistive pulse heating

Critical pressure [kPa] | Critical temperature [K] | SMILES
3800 ± 120 | 646 ± 6 | CC1CNCC(C)N1 (stereo not drawn) [2,6-dimethylpiperazine]
5130 ± 160 | 718 ± 7 | C[S+](C)[O-] [dimethyl sulfoxide]
4660 ± 140 | 801 ± 8 | O=C1CCCCCN1 [1-aza-2-cycloheptanone]
3730 ± 120 | 606 ± 6 | CN1CCN(C)CC1 [1,4-dimethylpiperazine]
